Data reported in patent US20230094146A1, “DEUTERATED THIENOPYRIDINE COMPOUND” (MEDSHINE DISCOVERY INC., priority 2020, published 2023).
Counter-ions that a name gives are not always drawn.

Legend:
[1] = Metabolic stability of liver microsomes in vitro; type: in vitro ADME, SD rat; details: Rat liver microsomes 0.5 mg/mL, compound 1 μM; for CLint scaled at 1 μM: Sprague-Dawley
Procedure: (§1) SD rat, mouse, beagle, cynomolgus monkey and human microsomes were purchased from Corning, Xenotech or BioIVT and stored in a −80° C. freezer.
(§2) 1.2 Nicotinamide adenine dinucleotide phosphate, reduced (NADPH), supplier: Chem-impex international, catalog number: 00616.
(§3) 1.3 Control compounds: testosterone, diclofenac, propafenone.
(§4) Stock solution: 10 mM DMSO solution.
(§5) Working concentration preparation: 100% acetonitrile diluted to 100 μM (organic phase content: 99% ACN, 1% DMSO).
(§6) Prepare two 96-well incubation plates, which were named T60 incubation plate and NCF60 incubation plate, respectively.
(§7) 445 μL of microsomal working solution (liver microsomal protein concentration of 0.56 mg/mL) was added to the T60 incubation plate and NCF60 incubation plate, respectively, and then the above incubation plates were preincubated in a 37° C. water bath for about 10 minutes.
(§8) After the preincubation, 5 μL of test substance or working solution of control compound were added to the T60 incubation plate and NCF60 incubation plate, respectively, and mixed well. The reaction was initiated by adding 50 μL of potassium phosphate buffer to each well of the NCF60 incubation plate; 180 μL of termination solution (acetonitrile solution containing 200 ng/mL tolbutamide and 200 ng/mL labetalol) and 6 μL of NADPH regeneration system working solution were added to the TO termination plate, and 54 μL of sample was removed from the T60 incubation plate to the TO termination plate (TO sample generation). The reaction was initiated by adding 44 μL NADPH regeneration system working solution to each well of the T60 incubation plate. 54 μL of microsomal working solution, 6 μL of NADPH regeneration system working solution and 180 μL of termination solution were added only to the blank plate. Therefore, in the samples of the test or control compounds, the final reaction concentration of compound, testosterone, diclofenac and propafenone was 1 μM, the concentration of liver microsomes was 0.5 mg/mL, and the final concentration of DMSO and acetonitrile in the reaction system were 0.01% (v/v) and 0.99% (v/v), respectively.
(§9) After incubation for an appropriate time (e.g. 5, 10, 20, 30 and 60 minutes), 180 μL of termination solution (acetonitrile solution containing 200 ng/mL tolbutamide and 200 ng/mL labetalol) was added to the sample well of each termination plate, respectively, and then 60 μL of sample was removed from the T60 incubation plate to terminate the reaction.
(§10) All sample plates were shaken well and centrifuged at 3220×g for 20 minutes, then 80 μL of supernatant per well was diluted into 240 μL of purified water for liquid chromatography tandem mass spectrometry analysis.
(§11) All samples were injected for analysis.

[2] = Pharmacokinetic evaluation in rats after oral administration; type: in vivo; details: Sprague-Dawley, plasma, 5 mg/kg, SD rat (male), 5 mpk
Procedure: Testing the pharmacokinetic properties of the compounds of the present disclosure in rats.
The pharmacokinetic characteristics of the compounds in rodents after oral administration were tested by standard protocols. In the experiment, the candidate compounds were formulated into a clarified solution and given to rats for oral administration. The vehicle was 10% NMP/40% PEG400/[…]. Whole blood samples were collected within 24 hours (0.0833, 0.25, 0.5, 1, 2, 4, 6, 8, 24 h), and all blood samples were added to the plastic centrifuge tubes pre-labeled with 0.5 M K2-EDTA anticoagulant.

[3] = Metabolic stability of liver microsomes in vitro; type: in vitro ADME, beagle; details: Dog liver microsomes 0.5 mg/mL, compound 1 μM; for CLint scaled at 1 μM: beagle
Procedure: as §1, §2, §3, §4, §5, §6, §7, §8, §9, §10, §11

[4] = Metabolic stability of liver microsomes in vitro; type: in vitro ADME, cynomolgus monkey; details: Monkey liver microsomes 0.5 mg/mL, compound 1 μM
Procedure: as §1, §2, §3, §4, §5, §6, §7, §8, §9, §10, §11

DDR2 = target: T1, DDR2 (Homo sapiens, UniProt Q16832); test: 33P isotope-labeled kinase activity assay (Reaction Biology Corp); type: biochemical; details: 33P-ATP at Km concentration
T1 construct: purchased Reaction Biology Corp
T1 sequence (Q16832 22-855): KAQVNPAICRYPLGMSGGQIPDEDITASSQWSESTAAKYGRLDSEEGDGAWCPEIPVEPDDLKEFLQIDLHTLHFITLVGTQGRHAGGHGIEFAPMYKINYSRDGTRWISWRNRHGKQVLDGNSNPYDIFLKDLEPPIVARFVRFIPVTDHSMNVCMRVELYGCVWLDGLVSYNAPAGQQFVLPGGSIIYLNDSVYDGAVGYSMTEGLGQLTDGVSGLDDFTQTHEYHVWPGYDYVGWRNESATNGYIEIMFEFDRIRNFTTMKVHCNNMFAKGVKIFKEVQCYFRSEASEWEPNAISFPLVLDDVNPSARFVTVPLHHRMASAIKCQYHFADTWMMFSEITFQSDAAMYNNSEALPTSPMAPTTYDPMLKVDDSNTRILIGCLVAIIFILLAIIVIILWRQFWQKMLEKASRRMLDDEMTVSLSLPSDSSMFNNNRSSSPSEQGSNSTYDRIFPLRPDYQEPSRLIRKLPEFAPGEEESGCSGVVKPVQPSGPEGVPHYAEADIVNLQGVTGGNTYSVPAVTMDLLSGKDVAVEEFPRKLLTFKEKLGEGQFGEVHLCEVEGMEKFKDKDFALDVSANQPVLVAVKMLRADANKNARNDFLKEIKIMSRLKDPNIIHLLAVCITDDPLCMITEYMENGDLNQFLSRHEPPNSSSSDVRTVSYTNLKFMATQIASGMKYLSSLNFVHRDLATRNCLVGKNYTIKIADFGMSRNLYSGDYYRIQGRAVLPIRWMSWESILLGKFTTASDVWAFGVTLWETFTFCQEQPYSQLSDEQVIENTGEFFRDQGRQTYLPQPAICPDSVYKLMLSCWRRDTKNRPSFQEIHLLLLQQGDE
Procedure: (§12) The ^33P isotope-labeled kinase activity assay (Reaction Biology Corp) was used to determine the IC50 value to evaluate the inhibitory ability of the test compounds to Axl, c-Kit, Mer, DDR2, VEGFR1, VEGFR2, VEGFR3, TrkA, and FLT3.
(§13) Buffer conditions: 20 mM hydroxyethylpiperazine […] (Hepes) (pH 7.5), 10 mM MgCl2, 1 mM ethylene glycol bisaminoethyl ether tetraacetic acid (EGTA), 0.02% polyoxyethylene dodecane Ether (Brij35), 0.02 mg/ml BSA, 0.1 mM Na3VO4, 2 mM dithiothreitol (DTT), 1% DMSO.
(§14) Compound Treatment: Test compounds were dissolved in 100% DMSO and diluted serially to a specific concentration with DMSO by Integra Viaflo Assist.
(§15) Test procedure: The substrate was dissolved in freshly prepared buffer, the tested kinase was added and gently mixed well. The DMSO solution containing the test compound was added to the above well mixed reaction solution using acoustic technique (Echo 550) and incubated at room temperature for […]. The compound concentrations in the reaction solution were 3 μM, 1 μM, 0.333 μM, 0.111 μM, 0.0370 μM, 0.0123 μM, 4.12 nM, 1.37 nM, 0.457 nM, 0.152 nM. After 15 minutes of incubation, ^33P-ATP (activity 0.01 μCi/μL, Km concentration) was added to start the reaction. The reaction was carried out at room temperature for 120 minutes, then radioactivity was detected by filter binding method. The kinase activity data were expressed by comparison between the kinase activity containing the test compound and the kinase activity of the blank group (containing DMSO only), and the IC50 values were obtained by curve fitting using Prism4 software (GraphPad), and the experimental results are shown in Table 1.

VEGFR1 = target: T2, VEGFR1 (Homo sapiens, UniProt P17948); test: as above; type: biochemical; details: 33P-ATP at Km concentration
T2 construct: purchased Reaction Biology Corp
T2 sequence (P17948 27-1338): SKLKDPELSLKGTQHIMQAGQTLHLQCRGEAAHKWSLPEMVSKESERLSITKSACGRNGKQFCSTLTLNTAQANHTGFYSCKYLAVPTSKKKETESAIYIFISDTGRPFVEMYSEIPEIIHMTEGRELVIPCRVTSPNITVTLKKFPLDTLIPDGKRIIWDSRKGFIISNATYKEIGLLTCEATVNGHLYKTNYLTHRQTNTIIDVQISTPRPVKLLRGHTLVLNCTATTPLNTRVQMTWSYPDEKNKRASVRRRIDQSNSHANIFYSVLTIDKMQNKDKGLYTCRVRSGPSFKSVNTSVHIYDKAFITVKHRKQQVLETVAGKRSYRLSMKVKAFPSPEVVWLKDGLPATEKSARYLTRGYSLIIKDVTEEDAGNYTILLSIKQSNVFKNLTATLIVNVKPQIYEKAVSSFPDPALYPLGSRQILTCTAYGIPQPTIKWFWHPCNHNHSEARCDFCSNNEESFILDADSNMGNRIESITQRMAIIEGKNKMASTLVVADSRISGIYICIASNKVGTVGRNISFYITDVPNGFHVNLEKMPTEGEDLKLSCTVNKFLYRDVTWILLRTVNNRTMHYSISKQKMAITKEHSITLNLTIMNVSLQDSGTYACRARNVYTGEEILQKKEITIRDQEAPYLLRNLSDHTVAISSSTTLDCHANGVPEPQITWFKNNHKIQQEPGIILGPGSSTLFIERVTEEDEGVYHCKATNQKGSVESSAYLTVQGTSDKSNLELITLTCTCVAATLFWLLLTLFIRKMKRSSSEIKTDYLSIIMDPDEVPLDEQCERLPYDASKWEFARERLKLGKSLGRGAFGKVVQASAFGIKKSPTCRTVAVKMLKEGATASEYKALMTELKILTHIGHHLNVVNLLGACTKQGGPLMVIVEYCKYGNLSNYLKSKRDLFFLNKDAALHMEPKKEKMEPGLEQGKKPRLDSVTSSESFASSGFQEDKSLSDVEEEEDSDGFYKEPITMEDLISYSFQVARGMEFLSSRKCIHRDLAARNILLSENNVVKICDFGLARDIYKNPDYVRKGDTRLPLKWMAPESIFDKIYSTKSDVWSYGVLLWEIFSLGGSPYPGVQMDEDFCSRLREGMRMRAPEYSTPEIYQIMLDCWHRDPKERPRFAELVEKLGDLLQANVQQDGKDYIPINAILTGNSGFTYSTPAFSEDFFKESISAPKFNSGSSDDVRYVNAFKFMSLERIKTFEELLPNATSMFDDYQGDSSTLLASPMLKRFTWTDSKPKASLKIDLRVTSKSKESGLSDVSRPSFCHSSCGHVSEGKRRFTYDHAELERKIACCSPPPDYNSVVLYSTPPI
Procedure: as §12, §13, §14, §15

VEGFR3 = target: T3, VEGFR3 (Homo sapiens, UniProt P35916); test: as above; type: biochemical; details: 33P-ATP at Km concentration
T3 construct: purchased Reaction Biology Corp
T3 sequence (P35916 25-1363): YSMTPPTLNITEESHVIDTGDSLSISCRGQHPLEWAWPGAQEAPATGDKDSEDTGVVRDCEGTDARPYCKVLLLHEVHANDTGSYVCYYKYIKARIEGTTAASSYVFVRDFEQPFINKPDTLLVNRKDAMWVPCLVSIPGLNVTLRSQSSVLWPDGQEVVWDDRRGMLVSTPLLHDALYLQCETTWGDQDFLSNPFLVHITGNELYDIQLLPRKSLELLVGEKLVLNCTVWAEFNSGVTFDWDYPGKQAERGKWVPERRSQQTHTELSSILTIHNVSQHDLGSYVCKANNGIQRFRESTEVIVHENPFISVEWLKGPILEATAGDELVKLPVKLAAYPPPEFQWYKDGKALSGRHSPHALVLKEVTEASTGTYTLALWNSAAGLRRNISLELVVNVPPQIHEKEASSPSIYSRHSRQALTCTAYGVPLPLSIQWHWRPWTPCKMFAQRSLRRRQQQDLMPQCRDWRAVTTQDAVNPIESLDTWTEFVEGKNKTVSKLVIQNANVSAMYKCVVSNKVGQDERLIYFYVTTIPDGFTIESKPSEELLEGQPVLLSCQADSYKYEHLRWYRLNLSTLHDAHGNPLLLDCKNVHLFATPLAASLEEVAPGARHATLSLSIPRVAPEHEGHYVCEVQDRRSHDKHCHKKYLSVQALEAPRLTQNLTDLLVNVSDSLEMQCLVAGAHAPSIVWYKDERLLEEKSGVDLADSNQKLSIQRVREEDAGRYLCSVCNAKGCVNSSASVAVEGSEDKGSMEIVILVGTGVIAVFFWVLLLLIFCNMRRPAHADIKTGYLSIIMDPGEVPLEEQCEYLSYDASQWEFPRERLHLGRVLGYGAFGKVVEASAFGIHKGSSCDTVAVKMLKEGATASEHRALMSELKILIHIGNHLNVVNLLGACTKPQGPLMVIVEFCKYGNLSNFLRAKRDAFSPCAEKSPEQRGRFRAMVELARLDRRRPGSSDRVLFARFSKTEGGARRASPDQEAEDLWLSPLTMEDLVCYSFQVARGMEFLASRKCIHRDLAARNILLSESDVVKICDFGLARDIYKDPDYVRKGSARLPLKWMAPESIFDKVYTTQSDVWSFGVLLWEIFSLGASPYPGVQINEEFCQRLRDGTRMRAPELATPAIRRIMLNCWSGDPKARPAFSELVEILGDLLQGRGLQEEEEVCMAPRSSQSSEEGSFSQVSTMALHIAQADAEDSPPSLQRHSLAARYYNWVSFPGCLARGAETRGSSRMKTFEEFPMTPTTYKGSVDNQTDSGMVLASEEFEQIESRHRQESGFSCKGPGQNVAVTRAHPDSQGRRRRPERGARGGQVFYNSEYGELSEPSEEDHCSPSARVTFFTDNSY
Procedure: as §12, §13, §14, §15

VEGFR2 = target: T4, VEGFR2 (Homo sapiens, UniProt P35968); test: as above; type: biochemical; details: 33P-ATP at Km concentration
T4 construct: purchased Reaction Biology Corp
T4 sequence (P35968 20-1356): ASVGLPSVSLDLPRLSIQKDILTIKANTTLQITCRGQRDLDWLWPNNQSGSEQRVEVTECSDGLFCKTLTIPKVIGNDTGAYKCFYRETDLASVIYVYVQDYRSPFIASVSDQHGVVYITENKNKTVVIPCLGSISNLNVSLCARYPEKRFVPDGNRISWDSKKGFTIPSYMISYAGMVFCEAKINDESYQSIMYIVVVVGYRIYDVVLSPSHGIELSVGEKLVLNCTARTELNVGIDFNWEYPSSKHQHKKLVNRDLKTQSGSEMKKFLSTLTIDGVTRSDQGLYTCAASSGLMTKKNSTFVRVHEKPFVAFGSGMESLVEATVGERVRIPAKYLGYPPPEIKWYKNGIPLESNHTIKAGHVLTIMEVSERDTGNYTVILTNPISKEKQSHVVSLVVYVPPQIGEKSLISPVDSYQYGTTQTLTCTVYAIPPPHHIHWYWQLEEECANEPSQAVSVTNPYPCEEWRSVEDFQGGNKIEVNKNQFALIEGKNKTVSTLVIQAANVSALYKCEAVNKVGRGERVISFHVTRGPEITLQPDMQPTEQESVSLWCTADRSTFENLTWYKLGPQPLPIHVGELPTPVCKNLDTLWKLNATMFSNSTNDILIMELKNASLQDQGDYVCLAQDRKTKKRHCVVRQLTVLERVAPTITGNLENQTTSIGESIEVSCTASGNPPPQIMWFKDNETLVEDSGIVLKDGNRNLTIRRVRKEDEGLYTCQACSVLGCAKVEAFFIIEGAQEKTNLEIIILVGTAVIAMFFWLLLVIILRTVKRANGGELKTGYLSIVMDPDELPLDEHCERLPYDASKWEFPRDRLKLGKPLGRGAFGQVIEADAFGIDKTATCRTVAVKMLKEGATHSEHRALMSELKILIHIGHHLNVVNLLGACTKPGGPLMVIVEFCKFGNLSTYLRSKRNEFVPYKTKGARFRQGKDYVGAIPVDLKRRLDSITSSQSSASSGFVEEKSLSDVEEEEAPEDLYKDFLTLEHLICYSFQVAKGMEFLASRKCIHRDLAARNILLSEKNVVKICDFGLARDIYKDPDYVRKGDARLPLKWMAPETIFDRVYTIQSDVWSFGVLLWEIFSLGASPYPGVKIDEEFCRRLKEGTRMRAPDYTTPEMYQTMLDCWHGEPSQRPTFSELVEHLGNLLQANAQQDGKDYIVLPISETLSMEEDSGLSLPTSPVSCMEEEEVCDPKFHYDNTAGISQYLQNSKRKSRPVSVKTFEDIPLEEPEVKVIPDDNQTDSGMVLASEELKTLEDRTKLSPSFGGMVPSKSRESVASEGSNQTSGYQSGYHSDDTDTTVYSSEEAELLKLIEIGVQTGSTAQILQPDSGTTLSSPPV
Procedure: as §12, §13, §14, §15

[5] = Metabolic stability of liver microsomes in vitro; type: in vitro ADME; details: compound 1 μM
Procedure: as §1, §2, §3, §4, §5, §6, §7, §8, §9, §10, §11

[6] = Human liver microsomes 0.5 mg/mL
[7] = Mouse liver microsomes 0.5 mg/mL

Row | 60 min remaining [1] [%] | CLint scaled at 1 μM [1] [mL/min/kg] | AUC(0-t) [2] [µM·h] | Cmax [2] [nM] | Tmax [2] [h] | 60 min remaining [3] [%] | CLint scaled at 1 μM [3] [mL/min/kg] | CLint scaled at 1 μM [4] [mL/min/kg] | 60 min remaining [4] [%] | IC50 (DDR2) [nM] | IC50 (VEGFR1) [nM] | IC50 (VEGFR3) [nM] | IC50 (VEGFR2) [nM] | CLint scaled at 1 μM [5, 6] [mL/min/kg] | 60 min remaining [5, 6] [%] | CLint scaled at 1 μM [5, 7] [mL/min/kg] | 60 min remaining [5, 7] [%] | Structure (SMILES)
1 | 28.6 | 71.3 | 6.65 | 930 | 1.25 | 4.9 | 144 | 22.5 | 55.9 | 0.79 | 10.5 | 2.82 | 2.16 | < 8.6 | 87.1 | 321 | 9.5 | [2H]C([2H])([2H])OCCNCc1ccc(-c2cc3nccc(Oc4ccc(NC(=O)C5(C(=O)Nc6ccc(F)cc6)CC5)cc4F)c3s2)nc1 [Trifluoroacetate of 001]
2 | 4.2 | 192 | 4.79 | 801 | 3 | 2.6 | 172 | 42.8 | 38.5 | – | – | – | – | 10.6 | 71.5 | 460 | 3.30 | COCCNCc1ccc(-c2cc3nccc(Oc4ccc(NC(=O)C5(C(=O)Nc6ccc(F)cc6)CC5)cc4F)c3s2)nc1 [Sitravatinib, reference compound]
3 | 26.2 | 78.1 | – | – | – | 5.4 | 139 | 19.7 | 59.7 | 1.14 | 7.16 | 2.13 | 2.75 | < 8.6 | 96.4 | 301 | 11.3 | [2H]C([2H])([2H])OC([2H])([2H])CNCc1ccc(-c2cc3nccc(Oc4ccc(NC(=O)C5(C(=O)Nc6ccc(F)cc6)CC5)cc4F)c3s2)nc1 [Hydrochloride of 002]
